In brackets after ≈: the same amount, converted by molar mass.
Columns and labels:
[1] = Inhibition of GST-tagged DLK (1 to 520 residues)(unknown origin) using MKK4 as substrate preincubated for 60 mins followed by substrate/ATP addition measured after 30 mins by HTRF assay; parameters: species or system Homo sapiens
[2] = Inhibition of human DLK transfected in HEK293-T-REx cells assessed as decrease in JNK phosphorylation incubated for 5 hrs by HTRF assay; format: cell-based
[3] = Energy of neutralization, pKa of compound; format: physicochemical
[4] = target: Voltage-gated inwardly rectifying potassium channel KCNH2 (Homo sapiens, UniProt Q12809); experiment: Inhibition of hERG by patch-clamp method; format: toxicity
Sequence of Voltage-gated inwardly rectifying potassium channel KCNH2 (Q12809 whole entry): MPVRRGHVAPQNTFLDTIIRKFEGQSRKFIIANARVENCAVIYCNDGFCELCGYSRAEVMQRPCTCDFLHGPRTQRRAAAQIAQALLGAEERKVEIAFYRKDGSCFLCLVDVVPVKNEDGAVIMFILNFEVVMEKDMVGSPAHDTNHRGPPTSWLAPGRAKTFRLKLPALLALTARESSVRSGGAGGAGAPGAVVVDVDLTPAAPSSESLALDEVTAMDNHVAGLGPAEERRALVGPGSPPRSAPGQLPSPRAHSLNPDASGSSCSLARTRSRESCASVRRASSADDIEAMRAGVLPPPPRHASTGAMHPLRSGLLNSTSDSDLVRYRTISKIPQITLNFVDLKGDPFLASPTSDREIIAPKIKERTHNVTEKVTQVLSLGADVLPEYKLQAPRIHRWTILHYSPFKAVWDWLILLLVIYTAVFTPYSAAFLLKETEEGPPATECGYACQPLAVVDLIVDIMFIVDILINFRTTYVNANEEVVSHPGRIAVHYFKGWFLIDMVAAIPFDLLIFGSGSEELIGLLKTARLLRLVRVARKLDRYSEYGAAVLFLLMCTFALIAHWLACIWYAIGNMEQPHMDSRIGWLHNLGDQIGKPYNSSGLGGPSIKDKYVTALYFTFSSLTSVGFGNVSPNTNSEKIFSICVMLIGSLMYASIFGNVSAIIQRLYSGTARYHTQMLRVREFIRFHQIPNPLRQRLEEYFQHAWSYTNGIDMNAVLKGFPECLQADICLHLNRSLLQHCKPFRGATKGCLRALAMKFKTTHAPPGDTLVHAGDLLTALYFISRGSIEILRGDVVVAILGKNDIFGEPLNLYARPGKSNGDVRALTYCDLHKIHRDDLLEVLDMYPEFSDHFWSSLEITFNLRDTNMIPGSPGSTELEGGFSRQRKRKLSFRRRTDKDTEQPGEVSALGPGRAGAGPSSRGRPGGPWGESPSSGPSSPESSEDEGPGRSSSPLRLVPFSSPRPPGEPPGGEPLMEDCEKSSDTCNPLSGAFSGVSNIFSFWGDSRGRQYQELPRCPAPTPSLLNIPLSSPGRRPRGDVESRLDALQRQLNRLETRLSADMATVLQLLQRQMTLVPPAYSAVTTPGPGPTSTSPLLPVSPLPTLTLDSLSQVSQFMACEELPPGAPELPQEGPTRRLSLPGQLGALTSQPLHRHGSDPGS

[5] = Intrinsic clearance in mouse liver microsomes; format: ADME, Microsome; details: read-out: CLH
[6] = Ratio of unbound drug concentration in brain to plasma of mouse at 5 mg/kg; format: ADME, organism-based; details: brain and plasma, read-out: K(p,uu,brain)
[7] = Intrinsic clearance in human liver microsomes; format: ADME, Microsome; details: read-out: CLH
[8] = Kinetic solubility of compound at pH 6.8; format: physicochemical; details: buffer, read-out: Kinetic_solubility
CYP3A4 = CYP3A4 (Homo sapiens, UniProt P08684); experiment: Time dependent inhibition of CYP3A4 (unknown origin) at 30 uM incubated for 30 mins relative to control; format: ADME; details: read-out: TDI
Sequence of CYP3A4 (P08684 whole entry): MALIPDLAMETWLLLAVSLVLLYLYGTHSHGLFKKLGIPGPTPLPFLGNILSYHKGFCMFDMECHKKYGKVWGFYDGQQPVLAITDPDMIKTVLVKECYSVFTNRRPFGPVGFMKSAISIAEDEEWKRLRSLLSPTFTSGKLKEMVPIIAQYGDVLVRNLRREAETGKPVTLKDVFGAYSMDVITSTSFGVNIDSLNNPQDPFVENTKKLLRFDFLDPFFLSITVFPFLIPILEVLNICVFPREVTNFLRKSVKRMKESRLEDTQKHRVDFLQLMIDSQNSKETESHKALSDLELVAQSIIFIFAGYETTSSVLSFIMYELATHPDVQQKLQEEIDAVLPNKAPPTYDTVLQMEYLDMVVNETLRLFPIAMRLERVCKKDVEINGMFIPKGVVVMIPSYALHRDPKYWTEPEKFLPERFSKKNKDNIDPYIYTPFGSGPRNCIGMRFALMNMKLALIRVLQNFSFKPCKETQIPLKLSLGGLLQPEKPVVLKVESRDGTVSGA

| Ki [1] [nM] | IC50 [2] [nM] | Compound | other results |
| --- | --- | --- | --- |
| 0.6 | 40 | CCc1nc(-c2cnc(N)c(C(F)(F)F)c2)c2ccc(C3(F)CCN(C)CC3)cn12 | pKa [3]: 8.4; IC50 [4]: 600 nM |
| 1.3 | 140 | CCn1nc(-c2cnc(N)c(OC(F)(F)F)c2)c2ccn([C@@H]3CCCOCC3)c(=O)c21 | microsomal CLint [5]: 25 µL/min/mg; Kp uu [6]: 0.29; microsomal CLint [7]: 18 µL/min/mg |
| 421 | – | Nc1ncc(-c2cc3cn[nH]c3cn2)cc1C(F)(F)F | – |
| 149 | – | Nc1ncc(-c2n[nH]c3cnccc23)cc1C(F)(F)F | – |
| 0.58 | 32 | CCn1nc(-c2cnc(N)c(OC(F)F)c2)c2ccn([C@H]3CCOC[C@H]3OC3CC3)c(=O)c21 | Kp uu [6]: 0.15 |
| 3.2 | 134 | Nc1ncc(-c2ncn3cc(C4CCN(C5COC5)CC4)ccc23)cc1C(F)(F)F | solubility kinetic [8]: 6 µM (≈ 2.5 µg/mL) |
| 194 | – | Nc1ncc(-c2cn(C3CCC3)c3cccnc23)cc1C(F)(F)F | – |
| 4.8 | 162 | CN1CCC(c2ccc3c(-c4cnc(N)c(C(F)(F)F)c4)nc(C#N)n3c2)CC1 | – |
| 4.3 | 90 | CN1CCCC[C@H]1c1ccc2c(-c3cnc(N)c(C(F)(F)F)c3)ncn2c1 | solubility kinetic [8]: 73 µM (≈ 27.4 µg/mL); pKa [3]: 8.1; IC50 [4]: 1100 nM |
| 1.2 | 54 | CO[C@H](C)c1nc(-c2cnc(N)c(C(F)(F)F)c2)c2ccc(C3CCN(C)CC3)cn12 | IC50 [4]: 1300 nM |
| 72.4 | – | Nc1ncc(-c2n[nH]c3ccsc23)cc1C(F)(F)F | – |
| 0.92 | 46 | CCn1nc(-c2cnc(N)c(OC(F)F)c2)c2ccn([C@H]3CCOC[C@H]3OC(F)(F)F)c(=O)c21 | Kp uu [6]: 0.5 |
| 3.4 | 104 | Nc1ncc(-c2nn(C3CC3)c3c(=O)n(C4CCOCC4)ccc23)cc1OC(F)(F)F | microsomal CLint [5]: 17 µL/min/mg; Kp uu [6]: 0.31; microsomal CLint [7]: 13 µL/min/mg |
| 2.5 | 130 | CCn1nc(-c2cnc(N)c(OC(F)(F)F)c2)c2ccn(C3CCN(C)CC3)c(=O)c21 | microsomal CLint [5]: 4 µL/min/mg; Kp uu [6]: 0.38; microsomal CLint [7]: < 3 µL/min/mg |
| 1.9 | 85 | CCn1nc(-c2cnc(N)c(OC(F)(F)F)c2)c2ccn([C@@H]3CCOC[C@H]3OC)c(=O)c21 | microsomal CLint [5]: 24 µL/min/mg; Kp uu [6]: 0.43; microsomal CLint [7]: 9.3 µL/min/mg |
| 1.6 | 84 | CCc1nc(-c2cnc(N)c(OC(F)(F)F)c2)c2ccc(C3CCOCC3)nn12 | inhibition at 0.5 h, 30 µM (CYP3A4): 78% |
| 2.5 | 100 | CCc1nc(-c2cnc(N)c(C(F)(F)F)c2)c2ccc([C@H]3CN(C)CCO3)cn12 | pKa [3]: 6.8; IC50 [4]: 6900 nM |
| 9.2 | 490 | CC(C)c1ccc2c(-c3cnc(N)c(C(F)(F)F)c3)ncn2c1 | solubility kinetic [8]: 10 µM (≈ 3.2 µg/mL) |
| 0.7 | 22 | CN1CCC(c2ccc3c(-c4cnc(N)c(C(F)(F)F)c4)nc([C@@H]4CCCO4)n3c2)CC1 | IC50 [4]: 800 nM |
| 4.6 | 242 | CCc1nc(-c2cnc(N)c(C(F)(F)F)c2)c2ccc(CN3CCOCC3)cn12 | pKa [3]: 6.1; IC50 [4]: 2500 nM |
| 4.5 | 405 | CN1CCC(Cc2ccc3c(-c4cnc(N)c(C(F)(F)F)c4)ncn3c2)CC1 | solubility kinetic [8]: 68 µM (≈ 26.5 µg/mL) |
| 0.7 | 31 | CCc1nc(-c2cnc(N)c(OC(F)(F)F)c2)c2ccc(C3(N4CCOCC4)CC3)cn12 | pKa [3]: 5.1; IC50 [4]: 17000 nM |
| 1.5 | 110 | CCn1nc(-c2cnc(N)c(OC(F)(F)F)c2)c2ccn([C@@H](C)C3CC3)c(=O)c21 | microsomal CLint [5]: 10 µL/min/mg; Kp uu [6]: 0.38; microsomal CLint [7]: < 4 µL/min/mg |

| Ki [1] [nM] | IC50 [2] [nM] | Compound | other results |
| --- | --- | --- | --- |
| 2 | 190 | CCc1nc(-c2cnc(N)c(OC(F)(F)F)c2)c2ccn(C3CCOCC3)c(=O)n12 | inhibition at 0.5 h, 30 µM (CYP3A4): 87% |
| 1.2 | 104 | CCc1nc(-c2cnc(N)c(OC(F)(F)F)c2)c2ccc([C@H]3COCC4(CC4)N3C)cn12 | inhibition at 0.5 h, 30 µM (CYP3A4): 67%; IC50 [4]: 30000 nM |
| 3.5 | 300 | CN1CCOC[C@H]1c1ccc2c(-c3cnc(N)c(OC(F)(F)F)c3)nc(C(F)(F)F)n2c1 | inhibition at 0.5 h, 30 µM (CYP3A4): 33% |
| 10.5 | 440 | CCn1nc(-c2cnc(N)c(OC(F)(F)F)c2)c2ccn(C3COC3)c(=O)c21 | microsomal CLint [5]: 24 µL/min/mg; Kp uu [6]: 0.5; microsomal CLint [7]: 9.2 µL/min/mg |
| 416 | – | Nc1ncc(-c2ccc3ncsc3n2)cc1C(F)(F)F | – |
| 79 | – | CC(C)c1n[nH]c2cnc(-c3cnc(N)c(C(F)(F)F)c3)cc12 | – |
| 1.8 | 180 | CCn1nc(-c2cnc(N)c(C(F)(F)F)c2)c2ccn([C@@H]3CCOC[C@@H]3OC3CC3)c(=O)c21 | Kp uu [6]: 0.24 |
| 2.1 | 94 | CN1CCC(c2ccc3c(-c4cnc(N)c(C(F)(F)F)c4)nc(C(F)(F)F)n3c2)CC1 | solubility kinetic [8]: 76 µM (≈ 33.7 µg/mL) |
| 5.3 | 290 | CCc1nc(-c2cnc(N)c(OC(F)(F)F)c2)c2cc(C)c([C@H]3COCCN3C)cn12 | inhibition at 0.5 h, 30 µM (CYP3A4): 70% |
| 2.4 | 94 | CCn1nc(-c2cnc(N)c(OC(F)(F)F)c2)c2ccc([C@H]3COCCN3C)nc21 | inhibition at 0.5 h, 30 µM (CYP3A4): 14% |
| 0.47 | 29 | CCc1nc(-c2cnc(N)c(OC(F)(F)F)c2)c2ccc([C@@]3(C)COCCN3C)cn12 | inhibition at 0.5 h, 30 µM (CYP3A4): 62% |
| 1.5 | 128 | CN1CCC(c2ccc3c(-c4cnc(N)c(C(F)(F)F)c4)ncn3c2)CC1 | solubility kinetic [8]: 80 µM (≈ 30 µg/mL) |
| 0.77 | 70 | CCc1nc(-c2cnc(N)c(OC(F)(F)F)c2)c2ccc([C@H]3CC(=O)N(C)C3)cn12 | inhibition at 0.5 h, 30 µM (CYP3A4): 81% |
| 63 | – | Nc1ncc(-c2ncn3ccccc23)cc1C(F)(F)F | – |
| 194 | – | Nc1ncc(-c2c[nH]c3cccnc23)cc1C(F)(F)F | – |
| 0.65 | 35 | CCn1nc(-c2cnc(N)c(OC(F)F)c2)c2ccn([C@H]3CCOC[C@H]3OC3CCC3)c(=O)c21 | – |
| 7.7 | 120 | CCn1nc(-c2cnc(N)c(OC(F)(F)F)c2)c2ccn([C@@H]3CCOC3)c(=O)c21 | microsomal CLint [5]: 33 µL/min/mg; microsomal CLint [7]: 22 µL/min/mg |
| 0.26 | 33 | CCc1nc(-c2cnc(N)c(OC(F)(F)F)c2)c2ccc([C@H]3COCC(=O)N3C)cn12 | inhibition at 0.5 h, 30 µM (CYP3A4): 65% |
| 3 | 130 | CCn1nc(-c2cnc(N)c(OC(F)(F)F)c2)c2ccn(C3CCN(C4COC4)CC3)c(=O)c21 | microsomal CLint [5]: 8.3 µL/min/mg; Kp uu [6]: 0.15; microsomal CLint [7]: 7.9 µL/min/mg |
| 27 | – | CC(C)n1cc(-c2cnc(N)c(C(F)(F)F)c2)c2nc(C3CC3)ccc21 | – |
| 59 | – | Nc1ncc(-c2cc3cn[nH]c3c(C3CC3)n2)cc1C(F)(F)F | – |
| 7.1 | 450 | CCc1nc(-c2cnc(N)c(OC(F)(F)F)c2)c2cc(Cl)c([C@H]3COCCN3C)cn12 | inhibition at 0.5 h, 30 µM (CYP3A4): 67% |
| 1 | – | CCc1nc(-c2cnc(N)c(C(F)(F)F)c2)c2ccc(C3COC3)cn12 | – |

Reference: ChEMBL document CHEMBL6096672, “In Silico Enabled Discovery of KAI-11101, a Preclinical DLK Inhibitor for the Treatment of Neurodegenerative Disease and Neuronal Injury” (J Med Chem, 2025)
